Source: article PMC4980083 (JCI insight, 2016)
Where a chain is given by its changes, count along the chain named.

Assays:
DU145 cells = experiment: DU145 proliferation/viability; type: cell-based, human; settings: up to 10 times the IC50 required to reduce AR-dependent proliferation; 3 days
ERα = ERα (Homo sapiens, UniProt P03372); experiment: ER transcriptional activity, ERE luciferase reporter; type: cell-based; settings: estradiol induced
LNCaP95 cells = experiment: Cell cycle analysis of LNCaP95 cells; type: cell-based, human; settings: I-EPI-002 5 μM, EPI-002 25 μM, 48 hours
full-length AR and V7 = experiment: Probasin luciferase activity in LNCaP cells, full-length AR and V7; settings: I-EPI-002 2 μM, enzalutamide 5 μM; presence or absence of androgen
[1] = target: T1, full-length AR and AR-V567es (Homo sapiens, UniProt P10275); experiment: Probasin luciferase activity in LNCaP cells, full-length AR and AR-V567es; settings: I-EPI-002 2 μM, enzalutamide 5 μM; presence or absence of androgen
T1 sequence (P10275 1-920): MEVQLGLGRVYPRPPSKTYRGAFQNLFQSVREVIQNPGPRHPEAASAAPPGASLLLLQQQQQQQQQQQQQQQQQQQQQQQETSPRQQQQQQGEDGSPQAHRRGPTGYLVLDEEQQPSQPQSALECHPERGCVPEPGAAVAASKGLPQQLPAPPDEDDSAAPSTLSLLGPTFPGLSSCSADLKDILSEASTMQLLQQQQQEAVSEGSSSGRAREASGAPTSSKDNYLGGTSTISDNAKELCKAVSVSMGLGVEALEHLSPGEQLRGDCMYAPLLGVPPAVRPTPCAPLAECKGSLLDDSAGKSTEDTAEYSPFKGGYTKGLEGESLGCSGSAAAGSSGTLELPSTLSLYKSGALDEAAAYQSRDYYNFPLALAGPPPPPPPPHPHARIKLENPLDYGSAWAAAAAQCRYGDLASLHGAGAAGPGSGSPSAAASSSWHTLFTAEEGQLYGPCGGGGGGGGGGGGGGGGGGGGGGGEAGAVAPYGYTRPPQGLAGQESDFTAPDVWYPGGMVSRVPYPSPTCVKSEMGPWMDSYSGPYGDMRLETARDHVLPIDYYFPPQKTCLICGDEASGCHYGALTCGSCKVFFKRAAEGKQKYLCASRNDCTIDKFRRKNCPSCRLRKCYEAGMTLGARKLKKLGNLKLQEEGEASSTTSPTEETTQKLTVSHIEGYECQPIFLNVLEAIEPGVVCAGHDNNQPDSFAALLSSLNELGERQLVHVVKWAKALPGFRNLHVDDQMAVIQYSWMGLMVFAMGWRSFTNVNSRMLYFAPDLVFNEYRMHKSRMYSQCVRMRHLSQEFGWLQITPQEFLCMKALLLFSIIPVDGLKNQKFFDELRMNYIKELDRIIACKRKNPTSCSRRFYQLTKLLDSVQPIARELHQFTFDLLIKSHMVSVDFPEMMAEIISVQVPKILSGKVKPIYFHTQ
T1 sequence (P10275 with tags, fused parts or gaps limits assumed): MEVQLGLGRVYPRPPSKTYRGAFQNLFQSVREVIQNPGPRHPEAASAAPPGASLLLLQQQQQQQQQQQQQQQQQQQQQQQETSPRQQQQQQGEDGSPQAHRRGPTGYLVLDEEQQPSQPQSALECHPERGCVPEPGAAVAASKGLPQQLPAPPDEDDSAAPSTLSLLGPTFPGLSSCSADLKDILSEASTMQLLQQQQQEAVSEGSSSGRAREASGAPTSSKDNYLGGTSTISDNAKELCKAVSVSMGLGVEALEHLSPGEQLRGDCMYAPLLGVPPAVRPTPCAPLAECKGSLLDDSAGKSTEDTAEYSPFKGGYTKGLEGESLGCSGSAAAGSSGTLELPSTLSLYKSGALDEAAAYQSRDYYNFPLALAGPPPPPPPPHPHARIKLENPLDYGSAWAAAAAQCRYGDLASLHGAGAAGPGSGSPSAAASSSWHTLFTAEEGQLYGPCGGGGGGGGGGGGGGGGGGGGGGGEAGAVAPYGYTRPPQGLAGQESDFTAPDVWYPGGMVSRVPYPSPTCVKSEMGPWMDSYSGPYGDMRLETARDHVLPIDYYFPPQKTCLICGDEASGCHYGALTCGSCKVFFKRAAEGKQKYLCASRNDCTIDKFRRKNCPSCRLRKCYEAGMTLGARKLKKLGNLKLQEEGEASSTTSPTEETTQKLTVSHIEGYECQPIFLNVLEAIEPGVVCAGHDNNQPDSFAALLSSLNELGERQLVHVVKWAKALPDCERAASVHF

[2] = target: T2, endogenous full-length AR (Homo sapiens, UniProt P10275, T878A); experiment: AR transcriptional activity, PSA
T2 sequence (P10275 1-920 T878A): T1 sequence (P10275 1-920) with T878A

Sequence of ERα (P03372 whole entry): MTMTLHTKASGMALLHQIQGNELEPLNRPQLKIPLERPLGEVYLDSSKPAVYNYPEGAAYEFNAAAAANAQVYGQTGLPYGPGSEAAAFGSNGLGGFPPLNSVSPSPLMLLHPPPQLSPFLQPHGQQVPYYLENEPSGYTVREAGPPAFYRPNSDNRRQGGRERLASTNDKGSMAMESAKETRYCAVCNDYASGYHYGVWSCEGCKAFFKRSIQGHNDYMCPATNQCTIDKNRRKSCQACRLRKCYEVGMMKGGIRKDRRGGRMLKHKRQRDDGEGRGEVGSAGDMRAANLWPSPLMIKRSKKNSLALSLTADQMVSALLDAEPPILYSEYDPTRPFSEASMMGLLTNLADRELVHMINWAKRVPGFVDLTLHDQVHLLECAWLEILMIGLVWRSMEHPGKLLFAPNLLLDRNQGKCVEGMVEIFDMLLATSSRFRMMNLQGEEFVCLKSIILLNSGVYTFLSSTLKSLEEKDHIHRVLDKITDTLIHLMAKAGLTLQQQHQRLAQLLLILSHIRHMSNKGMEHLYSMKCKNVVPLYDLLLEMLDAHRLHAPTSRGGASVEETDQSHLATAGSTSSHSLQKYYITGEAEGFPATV

15-IodoEPI002 [I-EPI-002]
effect on proliferation or viability of DU145 cells (DU145 cells): no effect | inhibition of ER transcriptional activity (ERα): did not inhibit | decrease of S phase cells (LNCaP95 cells): ≥ 2 fold | inhibition of probasin luciferase activity, full-length AR with V7 (full-length AR and V7): showed good inhibition | inhibition of probasin luciferase activity, full-length AR with V567es [1]: showed good inhibition | potency relative to EPI-002 ([2]; cell-based functional assays): 10 times | inhibition of AR transcriptional activity with increasing concentrations of androgen ([2]; increasing R1881, enzalutamide 5 μM, I-EPI-002 5 μM, EPI-002 25 μM): maintained effective inhibition | inhibition of AR transcriptional activity ([2]; ~2 μM, R1881 1 nM): 75%
